Results: the NIST ThermoML archive (doi:10.1021/je030147g)
Numbers after ± are expanded uncertainties.

Columns and labels:
[1] = xn = mol fraction of the nth substance listed; conditions: 101.33 kPa, Liquid
[2] = refractive index (Na D-line) (dimensionless); xn = mol fraction of the nth substance listed; conditions: 101.33 kPa, Liquid

Work on `CCCCN(CCCC)CCCC` [tributylamine] + CCCCCCCCCCCCCC yielded a mass density ([1]; 298.15 K, x1 = 0.1081) of 761.9 ± 0.8 kg/m3, a speed of sound ([1]; 298.15 K, x1 = 0.1081) of 1303 ± 6 m/s and a viscosity ([1]; 298.15 K, x1 = 0.1081) of 1.93 ± 0.18 mPa·s. It also gave a mass density ([1]; 298.15 K, x1 = 0.2058) of 762.9 ± 0.8 kg/m3, a speed of sound ([1]; 298.15 K, x1 = 0.2058) of 1292 ± 6 m/s and a viscosity ([1]; 298.15 K, x1 = 0.2058) of 1.842 ± 0.17 mPa·s. It also gave a mass density ([1]; 298.15 K, x1 = 0.2802) of 763.8 ± 0.8 kg/m3, a speed of sound ([1]; 298.15 K, x1 = 0.2802) of 1287 ± 6 m/s and a viscosity ([1]; 298.15 K, x1 = 0.2802) of 1.774 ± 0.17 mPa·s. It also gave a mass density ([1]; 298.15 K, x1 = 0.4095) of 765.3 ± 0.8 kg/m3, a speed of sound ([1]; 298.15 K, x1 = 0.4095) of 1283 ± 6 m/s and a viscosity ([1]; 298.15 K, x1 = 0.4095) of 1.668 ± 0.16 mPa·s. The mass density ([1]; 298.15 K, x1 = 0.5112) was 766.6 ± 0.8 kg/m3, the speed of sound ([1]; 298.15 K, x1 = 0.5112) was 1279 ± 6 m/s and the viscosity ([1]; 298.15 K, x1 = 0.5112) was 1.585 ± 0.15 mPa·s. The mass density ([1]; 298.15 K, x1 = 0.6101) was 767.9 ± 0.8 kg/m3, the speed of sound ([1]; 298.15 K, x1 = 0.6101) was 1275 ± 6 m/s and the viscosity ([1]; 298.15 K, x1 = 0.6101) was 1.511 ± 0.14 mPa·s. It also gave a mass density ([1]; 298.15 K, x1 = 0.7051) of 769.3 ± 0.8 kg/m3, a speed of sound ([1]; 298.15 K, x1 = 0.7051) of 1272 ± 6 m/s and a viscosity ([1]; 298.15 K, x1 = 0.7051) of 1.441 ± 0.14 mPa·s. It also gave a mass density ([1]; 298.15 K, x1 = 0.7999) of 770.9 ± 0.8 kg/m3, a speed of sound ([1]; 298.15 K, x1 = 0.7999) of 1270 ± 6 m/s and a viscosity ([1]; 298.15 K, x1 = 0.7999) of 1.375 ± 0.13 mPa·s. For the same molecule, the mass density ([1]; 298.15 K, x1 = 0.8953) was 772.4 ± 0.8 kg/m3, the speed of sound ([1]; 298.15 K, x1 = 0.8953) was 1267 ± 6 m/s and the viscosity ([1]; 298.15 K, x1 = 0.8953) was 1.309 ± 0.12 mPa·s. For the same molecule, the mass density ([1]; 298.15 K, x1 = 1) was 773.9 ± 0.8 kg/m3, the speed of sound ([1]; 298.15 K, x1 = 1) was 1262 ± 6 m/s and the viscosity ([1]; 298.15 K, x1 = 1) was 1.239 ± 0.12 mPa·s. It also gave a mass density ([1]; 303.15 K, x1 = 0.1081) of 758.1 ± 0.8 kg/m3, a viscosity ([1]; 303.15 K, x1 = 0.1081) of 1.75 ± 0.16 mPa·s and a mass density ([1]; 303.15 K, x1 = 0.2058) of 759.2 ± 0.8 kg/m3. The viscosity ([1]; 303.15 K, x1 = 0.2058) was 1.671 ± 0.16 mPa·s, the mass density ([1]; 303.15 K, x1 = 0.2802) was 760 ± 0.8 kg/m3 and the viscosity ([1]; 303.15 K, x1 = 0.2802) was 1.612 ± 0.15 mPa·s. The mass density ([1]; 303.15 K, x1 = 0.4095) was 761.5 ± 0.8 kg/m3, the viscosity ([1]; 303.15 K, x1 = 0.4095) was 1.518 ± 0.14 mPa·s and the mass density ([1]; 303.15 K, x1 = 0.5112) was 762.9 ± 0.8 kg/m3. The viscosity ([1]; 303.15 K, x1 = 0.5112) was 1.448 ± 0.14 mPa·s, the mass density ([1]; 303.15 K, x1 = 0.6101) was 764.2 ± 0.8 kg/m3 and the viscosity ([1]; 303.15 K, x1 = 0.6101) was 1.386 ± 0.13 mPa·s. The mass density ([1]; 303.15 K, x1 = 0.7051) was 765.5 ± 0.8 kg/m3, the viscosity ([1]; 303.15 K, x1 = 0.7051) was 1.329 ± 0.13 mPa·s and the mass density ([1]; 303.15 K, x1 = 0.7999) was 767 ± 0.8 kg/m3. For the same molecule, the viscosity ([1]; 303.15 K, x1 = 0.7999) was 1.274 ± 0.12 mPa·s, the mass density ([1]; 303.15 K, x1 = 0.8953) was 768.4 ± 0.8 kg/m3 and the viscosity ([1]; 303.15 K, x1 = 0.8953) was 1.222 ± 0.12 mPa·s. The mass density ([1]; 303.15 K, x1 = 1) was 769.2 ± 0.8 kg/m3, the viscosity ([1]; 303.15 K, x1 = 1) was 1.124 ± 0.11 mPa·s and the mass density ([1]; 308.15 K, x1 = 0.1081) was 754.4 ± 0.9 kg/m3. It also gave a viscosity ([1]; 308.15 K, x1 = 0.1081) of 1.57 ± 0.15 mPa·s, a mass density ([1]; 308.15 K, x1 = 0.2058) of 755.5 ± 0.9 kg/m3 and a viscosity ([1]; 308.15 K, x1 = 0.2058) of 1.499 ± 0.14 mPa·s. It also gave a mass density ([1]; 308.15 K, x1 = 0.2802) of 756.3 ± 0.9 kg/m3, a viscosity ([1]; 308.15 K, x1 = 0.2802) of 1.45 ± 0.14 mPa·s and a mass density ([1]; 308.15 K, x1 = 0.4095) of 757.8 ± 0.9 kg/m3. The viscosity ([1]; 308.15 K, x1 = 0.4095) was 1.368 ± 0.13 mPa·s, the mass density ([1]; 308.15 K, x1 = 0.5112) was 759.1 ± 0.9 kg/m3 and the viscosity ([1]; 308.15 K, x1 = 0.5112) was 1.31 ± 0.12 mPa·s. For the same molecule, the mass density ([1]; 308.15 K, x1 = 0.6101) was 760.5 ± 0.9 kg/m3, the viscosity ([1]; 308.15 K, x1 = 0.6101) was 1.261 ± 0.12 mPa·s and the mass density ([1]; 308.15 K, x1 = 0.7051) was 761.9 ± 0.9 kg/m3. For the same molecule, the viscosity ([1]; 308.15 K, x1 = 0.7051) was 1.216 ± 0.12 mPa·s, the mass density ([1]; 308.15 K, x1 = 0.7999) was 763.1 ± 0.9 kg/m3 and the viscosity ([1]; 308.15 K, x1 = 0.7999) was 1.173 ± 0.11 mPa·s. For the same molecule, the mass density ([1]; 308.15 K, x1 = 0.8953) was 764.4 ± 0.9 kg/m3, the viscosity ([1]; 308.15 K, x1 = 0.8953) was 1.135 ± 0.11 mPa·s and the mass density ([1]; 308.15 K, x1 = 1) was 765.7 ± 0.9 kg/m3. It also gave a viscosity ([1]; 308.15 K, x1 = 1) of 1.103 ± 0.11 mPa·s, a refractive index ([2]; 298.15 K, x1 = 0.1081) of 1.4283 ± 0.0007 and a refractive index ([2]; 298.15 K, x1 = 0.2058) of 1.4282 ± 0.0007. The refractive index ([2]; 298.15 K, x1 = 0.2802) was 1.428 ± 0.0007, the refractive index ([2]; 298.15 K, x1 = 0.4095) was 1.4278 ± 0.0007 and the refractive index ([2]; 298.15 K, x1 = 0.5112) was 1.4278 ± 0.0007. It also gave a refractive index ([2]; 298.15 K, x1 = 0.6101) of 1.4278 ± 0.0007, a refractive index ([2]; 298.15 K, x1 = 0.7051) of 1.4279 ± 0.0007 and a refractive index ([2]; 298.15 K, x1 = 0.7999) of 1.4281 ± 0.0007. The refractive index ([2]; 298.15 K, x1 = 0.8953) was 1.428 ± 0.0007, the refractive index ([2]; 298.15 K, x1 = 1) was 1.4276 ± 0.0007 and the refractive index ([2]; 303.15 K, x1 = 0.1081) was 1.4258 ± 0.0007. It also gave a refractive index ([2]; 303.15 K, x1 = 0.2058) of 1.4257 ± 0.0007, a refractive index ([2]; 303.15 K, x1 = 0.2802) of 1.4256 ± 0.0007 and a refractive index ([2]; 303.15 K, x1 = 0.4095) of 1.4254 ± 0.0007. It also gave a refractive index ([2]; 303.15 K, x1 = 0.5112) of 1.4254 ± 0.0007, a refractive index ([2]; 303.15 K, x1 = 0.6101) of 1.4254 ± 0.0007 and a refractive index ([2]; 303.15 K, x1 = 0.7051) of 1.4255 ± 0.0007. The refractive index ([2]; 303.15 K, x1 = 0.7999) was 1.4256 ± 0.0007, the refractive index ([2]; 303.15 K, x1 = 0.8953) was 1.4255 ± 0.0007 and the refractive index ([2]; 303.15 K, x1 = 1) was 1.4255 ± 0.0007. For the same molecule, the refractive index ([2]; 308.15 K, x1 = 0.1081) was 1.4234 ± 0.0007, the refractive index ([2]; 308.15 K, x1 = 0.2058) was 1.4234 ± 0.0007 and the refractive index ([2]; 308.15 K, x1 = 0.2802) was 1.4232 ± 0.0007. It also gave a refractive index ([2]; 308.15 K, x1 = 0.4095) of 1.4231 ± 0.0007, a refractive index ([2]; 308.15 K, x1 = 0.5112) of 1.423 ± 0.0007 and a refractive index ([2]; 308.15 K, x1 = 0.6101) of 1.423 ± 0.0007. The refractive index ([2]; 308.15 K, x1 = 0.7051) was 1.4231 ± 0.0007, the refractive index ([2]; 308.15 K, x1 = 0.7999) was 1.4231 ± 0.0007 and the refractive index ([2]; 308.15 K, x1 = 0.8953) was 1.4231 ± 0.0007. The refractive index ([2]; 308.15 K, x1 = 1) was 1.4228 ± 0.0007.
